Here are results for two compounds from PMC11500415, “Chemical inhibition of stomatal differentiation by perturbation of the master-regulatory bHLH heterodimer via an ACT-Like domain” (Nature Communications, 2024).

The target of one assay is T1, SCRM-SPCH heterodimer (Arabidopsis thaliana, UniProt Q700C7).
T1 construct: heterodimerization of SCRM with full-length SPCH, MUTE, or FAMA in the context of the plant cells; combinations of split YFP constructs fused to the full-length stomatal bHLH proteins; nYFP (N terminus of EYFP, 174 amino acids); cYFP (C terminus of EYFP, 64 amino acids); expressed in transfected cells; host or cells: Nicotiana benthamiana leaves (Agrobacterium infiltration)
T1 sequence (Q700C7 1-364): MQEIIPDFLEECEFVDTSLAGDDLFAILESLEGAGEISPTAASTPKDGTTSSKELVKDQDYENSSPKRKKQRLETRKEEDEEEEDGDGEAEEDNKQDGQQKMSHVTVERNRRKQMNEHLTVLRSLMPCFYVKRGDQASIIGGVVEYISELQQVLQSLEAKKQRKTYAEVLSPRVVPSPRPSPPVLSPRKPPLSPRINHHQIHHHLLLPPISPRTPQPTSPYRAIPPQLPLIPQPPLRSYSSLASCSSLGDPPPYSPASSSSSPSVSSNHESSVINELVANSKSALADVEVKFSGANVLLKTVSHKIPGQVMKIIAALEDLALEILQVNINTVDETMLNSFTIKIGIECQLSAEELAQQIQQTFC
The format is cell-based. The conditions noted are these: STOMI-treated. From the text: (§1) For ratiometric BiFC assays, the cDNAs of SPCH, MUTE, and FAMA were cloned into the 35S CaMV promoter-driven destination vector pSPYNE, which contains the N terminus of the EYFP protein (nYFP-174 amino acids), while the cDNA of SCRM and SCRM2 was inserted into pSPYCE, which contains the C terminus of the EYFP protein (cYFP-64 amino acids) (see Supplementary Table 5 for detailed information of the constructs). The constructs were then transformed into Agrobacterium tumefaciens strain GV3101. The Agrobacterium was resuspended in infiltration buffer (10 mM MgCl2, 10 mM 2-(N-morpholino)ethanesulfonic acid [pH 5.6], and 150 µM acetosyringone). Bacterial culture densities were adjusted to a final optical density (OD600) of 1.0, and the cell suspensions were incubated at room temperature for 4 hours prior to infiltration. Equal volumes of cultures carrying the corresponding complementary pair of BiFC constructs (YFPn and YFPc), along with CaMV35S::Histone H2B-mScarlet-I3 and the silencing suppressor plasmid p19 (a gift from Dr. Sir David Baulcombe) were mixed and then co-infiltrated into 4-week-old N. benthamiana leaves. The infiltrated N. benthamiana leaves were incubated at 25 °C for 2 days. Subsequently, leaf discs were cut out and cultured in mock or in liquid 1/2 MS media in mock (DMSO) or 100 µM Stomidazolone for 1 day. Confocal imaging of N. benthamiana leaves was performed using a Leica SP8 confocal microscope using a 20X objective lens (Leica Microsystems), simultaneously capturing YFP (excitation at 518 nm and emission at 530 nm) and mScarlet-I3 (excitation at 569 nm and emission at 600 nm) differential interference contrast channels.

A further assay concerns the target T2, SCRM2-MUTE heterodimer (Arabidopsis thaliana, UniProt Q9M8K6).
T2 construct: heterodimerization of SCRM with full-length SPCH, MUTE, or FAMA in the context of the plant cells; nYFP (N terminus of EYFP, 174 amino acids); expressed in transfected cells; host or cells: Nicotiana benthamiana leaves (Agrobacterium infiltration)
The assay is described as follows: Ratiometric BiFC in N. benthamiana leaves. It is filed as cell-based. The conditions noted are these: MUTE-SCRM2 pair, STOMI-treated, rescaled, average of 20; DMSO 0.692877.
Text: as §1

A further assay concerns the target T3, SCRM2-SPCH heterodimer (Arabidopsis thaliana, UniProt Q700C7).
T3 construct: heterodimerization of SCRM with full-length SPCH, MUTE, or FAMA in the context of the plant cells; we performed rBiFC assays using full-length SCRM2; nYFP (N terminus of EYFP, 174 amino acids); cYFP (C terminus of EYFP, 64 amino acids); expressed in transfected cells; host or cells: Nicotiana benthamiana leaves (Agrobacterium infiltration)
Kind of assay: Ratiometric BiFC in N. benthamiana leaves. The format is cell-based. The conditions noted are these: SPCH-SCRM2 pair, STOMI-treated, rescaled, average of 20; DMSO 0.870846.
Text: as §1

A further assay deals with T4, SCRM2-FAMA heterodimer (Arabidopsis thaliana, UniProt Q56YJ8).
T4 construct: heterodimerization of SCRM with full-length SPCH, MUTE, or FAMA in the context of the plant cells; we performed rBiFC assays using full-length SCRM2; nYFP (N terminus of EYFP, 174 amino acids); cYFP (C terminus of EYFP, 64 amino acids); expressed in transfected cells; host or cells: Nicotiana benthamiana leaves (Agrobacterium infiltration)
Kind of assay: Ratiometric BiFC in N. benthamiana leaves. The conditions noted are these: FAMA-SCRM2 pair, STOMI-treated, rescaled, average of 20; DMSO 0.813227. It is filed as cell-based.
Text: as §1

The target of the next assay is T5, SCRM-MUTE heterodimer (Arabidopsis thaliana, UniProt Q9M8K6).
T5 construct: expressed in transfected cells; host or cells: yeast strain AH109
T5 sequence (Q9M8K6 1-202): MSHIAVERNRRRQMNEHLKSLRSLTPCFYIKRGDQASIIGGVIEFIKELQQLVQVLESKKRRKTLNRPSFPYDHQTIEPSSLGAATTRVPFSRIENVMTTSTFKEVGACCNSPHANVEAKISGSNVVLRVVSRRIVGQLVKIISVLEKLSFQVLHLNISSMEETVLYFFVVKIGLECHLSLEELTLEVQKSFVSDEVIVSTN
Kind of assay: Ratiometric BiFC in N. benthamiana leaves. It is filed as cell-based. The conditions noted are these: BiFC MUTE+SCRM, STOMI-treated, individual measurements.
Text: as §1

The target of the next assay is T6, SCRM-FAMA heterodimer (Arabidopsis thaliana, UniProt Q56YJ8).
T6 construct: heterodimerization of SCRM with full-length SPCH, MUTE, or FAMA in the context of the plant cells; combinations of split YFP constructs fused to the full-length stomatal bHLH proteins; nYFP (N terminus of EYFP, 174 amino acids); cYFP (C terminus of EYFP, 64 amino acids); expressed in transfected cells; host or cells: Nicotiana benthamiana leaves (Agrobacterium infiltration)
T6 sequence (Q56YJ8 1-414): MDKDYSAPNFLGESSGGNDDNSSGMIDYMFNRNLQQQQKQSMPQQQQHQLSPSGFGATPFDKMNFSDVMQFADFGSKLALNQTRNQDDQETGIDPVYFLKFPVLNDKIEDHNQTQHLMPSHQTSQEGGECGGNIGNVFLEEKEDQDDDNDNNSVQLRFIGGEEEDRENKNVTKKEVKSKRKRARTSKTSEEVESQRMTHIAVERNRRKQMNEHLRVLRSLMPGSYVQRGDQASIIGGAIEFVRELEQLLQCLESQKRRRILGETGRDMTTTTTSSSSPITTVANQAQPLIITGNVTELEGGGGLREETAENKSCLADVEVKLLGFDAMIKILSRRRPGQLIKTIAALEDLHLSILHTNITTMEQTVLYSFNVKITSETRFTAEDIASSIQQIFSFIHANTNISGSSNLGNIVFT
The assay is described as follows: Ratiometric BiFC in N. benthamiana leaves. The format is cell-based. The conditions noted are these: BiFC FAMA+SCRM, STOMI-treated, individual measurements.
Text: as §1

For another assay, the target named is T7, empty+SCRM (control) (Arabidopsis thaliana, UniProt Q9LSE2).
T7 construct: split YFP constructs fused to the full-length stomatal bHLH proteins; expressed in transfected cells; host or cells: Nicotiana benthamiana leaves (Agrobacterium infiltration)
T7 sequence (Q9LSE2 1-494): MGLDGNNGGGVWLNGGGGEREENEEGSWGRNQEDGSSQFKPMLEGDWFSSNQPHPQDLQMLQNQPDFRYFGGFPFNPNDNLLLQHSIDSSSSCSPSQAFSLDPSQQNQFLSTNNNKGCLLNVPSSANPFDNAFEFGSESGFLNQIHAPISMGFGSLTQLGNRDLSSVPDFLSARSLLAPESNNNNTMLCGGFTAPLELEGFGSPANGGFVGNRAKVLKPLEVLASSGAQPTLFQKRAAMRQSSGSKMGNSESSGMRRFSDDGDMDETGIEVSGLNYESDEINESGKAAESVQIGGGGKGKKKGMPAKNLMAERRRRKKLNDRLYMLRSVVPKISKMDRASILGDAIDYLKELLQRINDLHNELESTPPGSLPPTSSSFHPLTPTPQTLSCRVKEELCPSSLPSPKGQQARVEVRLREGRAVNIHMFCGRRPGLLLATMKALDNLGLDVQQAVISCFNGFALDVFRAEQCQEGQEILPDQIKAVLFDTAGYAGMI
Kind of assay: Ratiometric BiFC, control empty+SCRM. It is filed as cell-based. The conditions noted are these: STOMI-treated, individual measurements.

A further assay relates to stomatal movement. Also noted: method as in PMID 35042960. The conditions noted are these: previous chemical screens and SAR studies; cited from earlier work.
[1] abbreviates: BiFC SPCH+SCRM, individual measurements.

Several values for one entry are separate records, joined by “and”; a condition that tells them apart may be missing. Identical values can stand only once.

For `O=C1C(c2ccccc2)=NC(NS(=O)(=O)c2ccccc2)(c2ccccc2)N1S(=O)(=O)c1ccccc1` (racemic) [STOMI], the YFP was 42.813 and 234.339 and 61.532 and 61.417 and 224.742 and 142.963 on SCRM-SPCH heterodimer (setting [1]); 1.16E+01 and 3.104 and 3.249 and 11.738 and 9.681 and 6.858 on SCRM-MUTE heterodimer; 186.917 and 54.749 and 197.322 and 78.346 and 117.223 and 50.688 at SCRM-FAMA heterodimer; 0.095 and 0.409 and 0 and 0.026 and 5.60E-04 and 0.042 on empty+SCRM (control). Moreover, the mScarlet on SCRM-SPCH heterodimer (setting [1]) was 36.031 and 235.498 and 75.919 and 70.723 and 231.024 and 153.918; on SCRM-MUTE heterodimer, 45.576 and 182.295 and 179.515 and 55.282 and 40.598 and 43.561; at SCRM-FAMA heterodimer, 191.252 and 51.452 and 208.697 and 65.781 and 129.694 and 62.052; at empty+SCRM (control), 104.805 and 37.637 and 55.755 and 32.234 and 159.765 and 43.034. Moreover, the “BiFC YFP/mScarlet signal intensity ratio, average” value on SCRM-SPCH heterodimer (SPCH-SCRM pair, rescaled, average of 20, DMSO 0.999748) turned out to be 0.9445; at SCRM2-MUTE heterodimer it was 0.1063; on SCRM2-SPCH heterodimer, 0.1468; on SCRM2-FAMA heterodimer it was 0.1443. The YFP/mScarlet at SCRM-MUTE heterodimer was 0.2554 and 0.01703 and 0.0181 and 0.2123 and 0.2385 and 0.1574; on SCRM-FAMA heterodimer it was 0.9773 and 1.064 and 0.9455 and 1.191 and 0.9038 and 0.8169; at empty+SCRM (control), 0.0009064 and 0.01087 and 0 and 0.0008066 and 3.5039e-6 and 0.000976.

With `O=S(=O)(c1ccccc1)N(c1oc(-c2ccccc2)nc1-c1ccccc1)S(=O)(=O)c1ccccc1` [SIM1], the “effect on stomatal movement (in words)” value with stomatal movement is “inhibit stomatal movement”.
